The experiment has as its system rat BNP promoter activity in neonatal rat ventricular myocytes. The experiment in a line: BNP promoter luciferase reporter in neonatal cardiomyocytes with or without endothelin-1. Conditions: neonatal cardiomyocytes, 24 h. It counts as cell-based. The method, then:
Five compounds (GATA4–NKX2-5 synergy inhibitors 1, 61, and 65; the synergy activator 2; and the NKX2-5 activity inhibitor 47c) were selected for studies in neonatal cardiomyocytes, which were treated with endothelin-1 (ET-1), a well-established hypertrophic agonist that activates the gene expression of both ANP and BNP (Figure 4). The myocytes were transfected with construct containing −534/+4 proximal region of rat BNP promoter with GATA4 and NKX2-5 binding sites in front of luciferase before exposure to compounds and ET-1, which was added 1 h after the compounds.
Figure 4 Effects of the compounds 1, 2, 47c, 61, and 65 on BNP gene activation in cardiomyocytes. Neonatal cardiomyocytes were transfected with rat BNP luciferase reporter for 24 h. The cells were exposed to compounds and 1 h later to endothelin-1 (ET-1) for 24 h. The results are expressed as +SD (n = 3 or 9 for DMSO groups). ***P < 0.001 vs DMSO; **P < 0.01 vs DMSO; *P < 0.05 vs DMSO (one-way ANOVA followed by Tukey’s HSD or Welch ANOVA followed by Games–Howell); ^###P < 0.001 vs DMSO, no stimulus (independent samples Student’s t test).
The plasmids expressing mouse GATA4 protein, pMT2-GATA4, and empty pMT2 were gifts from D. B. Wilson (Department of Pediatrics, St. Louis Children’s Hospital, St. Louis, MO).[44] The plasmids expressing mouse NKX2-5 protein, pMT2-NKX2-5, have been described earlier.[28] The luciferase reporter plasmid used in GATA4–NKX2-5 transcriptional synergy assay and NKX transcriptional assay, pGL3-3xHA, contains three high affinity binding sites for NKX2-5.[28] The luciferase reporter plasmid used in GATA transcriptional assay, NP-112, contains tandem GATA-sites and minimal promoter of rat brain natriuretic peptide (BNP) gene.[45] The pGL3-BNP luciferase reporter containing −534/+4 bp rat BNP proximal promoter described previously was used in hypertrophy assay.[46]
The neonatal rat ventricular myocytes were isolated from 2- to 3-day-old Wistar rats, as described earlier.[29],[32] Rat pups were acquired from the experimental animal facility of the University of Helsinki with an internal use license (KEK17-012). Animals were housed in standard conditions, and their handling and all procedures were carried out in accordance with University of Helsinki institutional guidelines, which conform to the National Research Council (U.S.) Guide for the Care and Use of Laboratory Animals.[47] The cells were seeded at 50 000 cells/well in Isoplate-96 microplates (PerkinElmer, Turku, Finland) and cultured for 18–20 h with Dulbecco’s modified Eagle medium (DMEM)/F12 culture medium containing 2.5 mM L-glutamine, supplemented with 100 IU/mL penicillin–streptomycin and 10% fetal bovine serum (all from Gibco, Thermo Scientific). Transfections were carried out for 24 h in serum free media (CSFM; DMEM/F12, 2.5 mg/mL bovine serum albumin, 1 μM insulin, 2.5 mM L-glutamine, 32 nM selenium, 2.8 mM sodium pyruvate, 5.64 μg/mL transferrin, 1 nM T3, and 100 IU/mL PS) by using 100 ng of pGL3-BNP luciferase plasmid per well in a 1:3 ratio of DNA/transfection reagent (Fugene 6, Promega). […] After 24 h, the luminescence was measured as above.
Results from cardiomyocyte experiments are expressed as mean + SD from at least three independent experiments. Data were analyzed using IBM SPSS Statistics 24 software. […] Significance between ET-1 and DMSO samples was analyzed with independent samples Student’s t test. […]

As for “N-[4-(Diethylamino)phenyl]-3-methyl-5-(4-methyl-1,2,3-thiadiazol-5-yl)isoxazole-4-carboxamide [Compound 47c]”, the “effect on BNP promoter activity in cardiomyocytes (in words)” value is on record as “increased BNP promoter activity”. Turning to `Cc1onc(-c2ccccc2)c1C(=O)N(C1=NC(C)CS1)c1ccc(Cl)cc1` (centres unmarked) [Compound 2], the “effect on BNP promoter activity in cardiomyocytes (in words)” value was “increased BNP promoter activity”.

Values taken from publication PMC7076710, “Synthesis, Identification, and Structure–Activity Relationship Analysis of GATA4 and NKX2-5 Protein–Protein Interaction Modulators” (Journal of Medicinal Chemistry, 2019).
